Assay results: paper PMC8815882, “Screening the pandemic response box identified benzimidazole carbamates, Olorofim and ravuconazole as promising drug candidates for the treatment of eumycetoma” (PLoS Neglected Tropical Diseases, 2022)
Converted amounts (≈) assume the structure as drawn. Where two headings read alike, the source gives them in different places.

Tests used:
[1] = system: M. pseudomycetomatis strain Mex2A; test: CLSI M38-A2 based in vitro susceptibility screening at 25 μM; assay type: cell-based, Madurella pseudomycetomatis; conditions: selected if >75% (resazurin) or >80% (XTT) fungal growth inhibited
[2] = system: M. mycetomatis MM55; test: IC50 determination, 2-fold dilution series 16 to 0.03125 μM; assay type: cell-based, Madurella mycetomatis; conditions: for IC50 / IC90: Madurella mycetomatis
[3] = system: M. tropicana strain CBS206.47; test: CLSI M38-A2 based in vitro susceptibility screening at 25 μM; assay type: cell-based, Madurella tropicana; conditions: selected if >75% (resazurin) or >80% (XTT) fungal growth inhibited
[4] = system: Me. romeroi strain CBS128765; test: as above; assay type: cell-based, Medicopsis romeroi; conditions: selected if >75% (resazurin) or >80% (XTT) fungal growth inhibited
[5] = system: M. mycetomatis genome strain MM55; test: CLSI M38-A2 based in vitro susceptibility screening (XTT or resazurin), growth at fixed concentration; assay type: cell-based, Madurella mycetomatis; conditions: for activity at 25 µM / activity at 100 µM: Madurella mycetomatis
[6] = system: ten different M. mycetomatis isolates; test: MIC / MIC50 determination (XTT) in ten M. mycetomatis isolates; assay type: cell-based, Madurella mycetomatis; conditions: Madurella mycetomatis
[7] = system: F. senegalensis strain CBS132257; test: CLSI M38-A2 based in vitro susceptibility screening at 25 μM; assay type: cell-based, Falciformispora senegalensis; conditions: selected if >75% (resazurin) or >80% (XTT) fungal growth inhibited

`COc1cc(C)c2c(Oc3cccc(C(F)(F)F)c3)c(OC)cc(NC(C)CCCN)c2n1` (stereo not shown) [MMV000043, Tafenoquine, reference compound] was tested, and the “Inhibits growth of Madurella pseudomycetomatis at 25 μM” value [1] was “inhibit the growth”, the “Drug static or cidal” value [2] was “Cidal” and the IC50 ([2]; MM55, Table 2, M. mycetomatis MM55, read-out: IC50) was 12.8 µM. For the same molecule, the IC50 ([2]; MM55, mean, read-out: IC50 mean) was 12.9 µM, the IC90 ([2]; MM55, read-out: IC90 mean) was 23.9 µM and the IC50 ([2]; MM55, replicate 1, read-out: IC50 1) was 11.7 µM. It also gave an IC90 ([2]; MM55, replicate 1, read-out: IC90 1) of 23.5 µM, an IC50 ([2]; MM55, replicate 2, read-out: IC50 2) of 13.2 µM and an IC90 ([2]; MM55, replicate 2, read-out: IC90 2) of 23.6 µM. For the same molecule, the IC50 ([2]; MM55, replicate 3, read-out: IC50 3) was 13.8 µM, the IC90 ([2]; MM55, replicate 3, read-out: IC90 3) was 24.7 µM and the “Inhibits growth of Madurella tropicana at 25 μM” value [3] was “inhibit the growth”. The “Inhibits growth of Medicopsis romeroi at 25 μM” value [4] was “inhibit the growth”, the “Inhibits growth of Madurella mycetomatis at 25 μM” value ([5]; 25 μM, selected if >75% (resazurin) or >80% (XTT) fungal growth inhibited) was “inhibit the growth” and the activity at 25 µM ([5]; mean, read-out: Percentage survival at 25um, 25 uM mean) was 0.788%. It also gave an activity at 25 µM ([5]; replicate A, read-out: Percentage survival at 25um, 25 um A) of -2.31%, an activity at 25 µM ([5]; replicate B, read-out: Percentage survival at 25um, 25 uM B) of 0.422% and an activity at 25 µM ([5]; replicate C, read-out: Percentage survival at 25um, 25 uM C) of 4.25%. It also gave an activity at 100 µM ([5]; mean, read-out: Percentage survival at 100um, 100 uM mean) of 22.7%, an activity at 100 µM ([5]; replicate (first column), read-out: Percentage survival at 100um, 100 uM A) of 53.1% and an activity at 100 µM ([5]; replicate (second column), read-out: Percentage survival at 100um, 100 uM A) of 6.69%. For the same molecule, the activity at 100 µM ([5]; replicate (third column), read-out: Percentage survival at 100um, 100 uM A) was 8.3%, the MIC50 ([6]; median MIC over ten M. mycetomatis isolates, no asterisk, read-out: MIC50) was 4 µM (≈ 1.85 µg/mL) and the MIC50 ([6]; over the isolates tested, read-out: MIC50 mean) was 4 µM (≈ 1.85 µg/mL). It also gave an MIC ([6]; isolate CBS247.48, read-out: MIC CBS247.48) of 8 µM (≈ 3.71 µg/mL), an MIC ([6]; isolate MM55, read-out: MIC MM55) of 4 µM (≈ 1.85 µg/mL) and an MIC ([6]; isolate P1, read-out: MIC P1) of 16 µM (≈ 7.42 µg/mL). For the same molecule, the MIC ([6]; isolate So1, read-out: MIC So1) was 16 µM (≈ 7.42 µg/mL), the MIC ([6]; isolate i1, read-out: MIC i1) was 4 µM (≈ 1.85 µg/mL) and the MIC ([6]; isolate i11, read-out: MIC i11) was 4 µM (≈ 1.85 µg/mL). For the same molecule, the “Inhibits growth of Falciformispora senegalensis at 25 μM” value [7] was “inhibit the growth”.
